Columns and labels:
TCam-2 (SE) = test: XTT cell viability assay, TCam-2; assay type: cell-based; conditions: Homo sapiens; after 48 h, XTT, n = 4; read-out: EC50 colour/symbol code, SE TCam-2
Outline: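 Cells (5 × 10^3 per well) are plated on day 0, then treated on day 1 with graded drug doses or vehicle. XTT conversion gives viability, from which EC50 is derived.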

[1] = system: transcriptome of 2102EP cells; test: RNA sequencing; assay type: cell-based, Human; conditions: 16 h
Outline: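 Transcriptome of 2102EP cells sequenced; differential expression between two groups tested with p values FDR-corrected for multiple testing. Solvent-control values averaged across three datasets (GSE189472, GSE190792, GSE190022).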

[2] = system: EC (embryonal carcinoma) cell lines; test: XTT cell viability assay, mean per entity EC; assay type: cell-based; conditions: Homo sapiens, after 48 h
Method: (§1) The […] (XTT) assays were performed as described previously. In summary, for GCT and fibroblast cell lines 5 × 10^3 cells (3 × 10^3 for UC, PCa and RCC cell lines) per 96-well were seeded and different drug concentrations (see Additional file 2: Fig. S2, Additional file 3: Fig. S3) or corresponding solvents were added to the cells the following day. For drug details see Additional file 12: Table S2 C. Each condition was analyzed in four technical replicates and EC50 values were calculated by GraphPad Prism v8.

[3] = system: histone modifications in 2102EP cells; test: Mass spectrometry analysis of histone modifications (Mod Spec); assay type: cell-based, Human
Outline: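 2102EP cells were treated for 16 h with EC50 concentrations of Quisinostat, JIB-04, Chaetocin, MZ-1, LP99, PRT4165 or GSK343, with DMSO as solvent control. After trypsin harvest, histones were extracted and analysed by mass spectrometry. Raw data were converted to z-scores.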

Sertoli cells FS1 (SC) = test: XTT cell viability assay, Sertoli cells; assay type: cell-based; conditions: Homo sapiens; after 48 h
Method: as §1

[4] = system: CC-R (cisplatin-resistant choriocarcinoma subclones); test: XTT cell viability assay, mean per entity CC-R; assay type: cell-based; conditions: Homo sapiens, after 48 h
Method: as §1

[5] = system: SE-R (cisplatin-resistant seminoma subclone); test: XTT cell viability assay, mean per entity SE-R; assay type: cell-based; conditions: Homo sapiens, after 48 h
Method: as §1

[6] = system: DNA methylation (5mC, 5hmC) in 2102EP cells; test: DNA slot blot (5mC, 5hmC); assay type: cell-based, Human; conditions: 24 h
Method: Purity of DNA was verified using NanoDrop 260/280 ratio and agarose gel electrophoresis. DNA was diluted in H2O to 200 ng, 100 ng and 50 ng in 200 µl per slot. Slot-Blotter device (Carl Roth GmbH + Co KG, Karlsruhe, Germany) was assembled as according to the manual. DNA was blotted onto a positively charged nylon membrane (Carl Roth GmbH + Co KG, Karlsruhe, Germany) using vacuum application. Three identical membranes were prepared. The membranes were air-dried for 15—20 min and UV-crosslinked (20 s (s), 1200 mJ/cm^2). One membrane was stained with methylene blue (0.02% methylene blue (Merck Millipore, Darmstadt, Germany) in 0.3 M sodium acetate (pH 5.2)) to validate DNA loading across the samples. The remaining two membranes were blocked in 5% milk powder in PBST for 1 h at RT. Membranes were incubated with 5mC or 5hmC antibody overnight at 4 °C. After washing, membranes were incubated with secondary antibody for 2 h at RT. Signals were detected using the ChemiDoc Imaging Systems (Bio-Rad Laboratories, Feldkirchen, Germany).

[7] = sorted data log2>±1.5, FDR p<0.05
[8] = 2102EP cells, Mod Spec raw data
[9] = 2102EP, EC50, 16 h, vs solvent control

In the case of `CCCc1cc(C)[nH]c(=O)c1CNC(=O)c1cc(-c2ccnc(N3CCN(C)CC3)c2)cc2c1cnn2C(C)C` [GSK343], the EC50 (TCam-2 (SE)) is reported as 1 to 50 µM, the “CSF1R Log2 fold change vs. DMSO” value [1, 7] is reported as 3.81 and the “FOSB Log2 fold change vs. DMSO” value [1, 7] is reported as 3.96. The “GOLGA6D Log2 fold change vs. DMSO” value [1, 7] was -4.42, the “SCNN1B Log2 fold change vs. DMSO” value [1, 7] was -4.06 and the “TAC1 Log2 fold change vs. DMSO” value [1, 7] was 3.59. For the same compound, the “UMODL1 Log2 fold change vs. DMSO” value [1, 7] was -3.29, the “A1BG Log2 fold change vs. DMSO” value ([1]; unsorted data) was -0.54 and the “A1CF Log2 fold change vs. DMSO” value ([1]; unsorted data) was -2.01. The “A2M Log2 fold change vs. DMSO” value ([1]; unsorted data) was -0.59, the EC50 [2] was 10.6 µM and the “H1.4: K25AC, % of peptide pool” value [3, 8] was 0.006216%. For the same compound, the “H1.4: K25ME1, % of peptide pool” value [3, 8] was 2.263%, the “H1.4: K25ME2, % of peptide pool” value [3, 8] was 0.05379% and the “H1.4: K25ME3, % of peptide pool” value [3, 8] was 0.00622%. For the same compound, the “H1.4: K25UN, % of peptide pool” value [3, 8] was 97.6705%, the “H2A1: K13AC, % of peptide pool” value [3, 8] was 0.008349% and the “H2A1: K13UN, % of peptide pool” value [3, 8] was 99.9917%. For the same compound, the “H2A1: K15AC, % of peptide pool” value [3, 8] was 0.01155%, the “H2A1: K15UB, % of peptide pool” value [3, 8] was 0% and the “H2A1: K15UN, % of peptide pool” value [3, 8] was 99.9884%. For the same compound, the “H2A3: K13AC, % of peptide pool” value [3, 8] was 0.06695%, the “H2A3: K13UN, % of peptide pool” value [3, 8] was 99.933% and the “H2A3: K15AC, % of peptide pool” value [3, 8] was 0.06714%. The “H2A3: K15UB, % of peptide pool” value [3, 8] was 0%, the “H2A3: K15UN, % of peptide pool” value [3, 8] was 99.9329% and the “H2A: K5AC, % of peptide pool” value [3, 8] was 13.1006%. For the same compound, the “H2A: K5UN, % of peptide pool” value [3, 8] was 86.8994%, the “H2A: K9AC, % of peptide pool” value [3, 8] was 1.639% and the “H2A: K9UN, % of peptide pool” value [3, 8] was 98.3613%. For the same compound, the “H2A: K36AC, % of peptide pool” value [3, 8] was 0.03993%, the “H2A: K36UN, % of peptide pool” value [3, 8] was 99.9601% and the “H3: K9AC, % of peptide pool” value [3, 8] was 0.6993%. The “H3: K9ME1, % of peptide pool” value [3, 8] was 34.216%, the “H3: K9ME2, % of peptide pool” value [3, 8] was 32.7434% and the “H3: K9ME3, % of peptide pool” value [3, 8] was 3.375%. The “H3: K9UN, % of peptide pool” value [3, 8] was 28.9663%, the “H3: K14AC, % of peptide pool” value [3, 8] was 31.7092% and the “H3: K14UN, % of peptide pool” value [3, 8] was 68.2908%. For the same compound, the “H3: K18AC, % of peptide pool” value [3, 8] was 12.5517%, the “H3: K18ME1, % of peptide pool” value [3, 8] was 0.1858% and the “H3: K18UN, % of peptide pool” value [3, 8] was 87.2625%. For the same compound, the “H3: K23AC, % of peptide pool” value [3, 8] was 21.2228%, the “H3: K23ME1, % of peptide pool” value [3, 8] was 0.01722% and the “H3: K23UN, % of peptide pool” value [3, 8] was 78.76%. The “H3: K56AC, % of peptide pool” value [3, 8] was 0.2947%, the “H3: K56ME1, % of peptide pool” value [3, 8] was 0.4365% and the “H3: K56UN, % of peptide pool” value [3, 8] was 99.2689%. For the same compound, the “H3: K64AC, % of peptide pool” value [3, 8] was 0.01667%, the “H3: K64UN, % of peptide pool” value [3, 8] was 99.9833% and the “H3: K79AC, % of peptide pool” value [3, 8] was 0.7184%. The “H3: K79ME1, % of peptide pool” value [3, 8] was 16.7848%, the “H3: K79ME2, % of peptide pool” value [3, 8] was 6.651% and the “H3: K79ME3, % of peptide pool” value [3, 8] was 10.1333%. For the same compound, the “H3: K79UN, % of peptide pool” value [3, 8] was 65.7124%, the “H3: K122AC, % of peptide pool” value [3, 8] was 0.136% and the “H3: K122UN, % of peptide pool” value [3, 8] was 99.864%. The “H3: Q19ME1, % of peptide pool” value [3, 8] was 0.007707%, the “H3: Q19UN, % of peptide pool” value [3, 8] was 99.9923% and the “H3: Q55ME1, % of peptide pool” value [3, 8] was 0.1478%. The “H3: Q55UN, % of peptide pool” value [3, 8] was 99.8522%, the “H3: R42ME2, % of peptide pool” value [3, 8] was 3.196% and the “H3: R42UN, % of peptide pool” value [3, 8] was 96.8039%. For the same compound, the “H3: R49ME2, % of peptide pool” value [3, 8] was 7.636%, the “H3: R49UN, % of peptide pool” value [3, 8] was 92.3639% and the “H3R2UN: K4AC, % of peptide pool” value [3, 8] was 0.06759%. For the same compound, the “H3R2UN: K4ME1, % of peptide pool” value [3, 8] was 18.4584%, the “H3R2UN: K4ME2, % of peptide pool” value [3, 8] was 0.1346% and the “H3R2UN: K4ME3, % of peptide pool” value [3, 8] was 0.0559%. The “H3R2UN: K4UN, % of peptide pool” value [3, 8] was 81.2835%, the “H3R2UN: Q5ME1, % of peptide pool” value [3, 8] was 0.1125% and the “H3R2UN: Q5UN, % of peptide pool” value [3, 8] was 99.8875%. The “H3.1: K27AC, % of peptide pool” value [3, 8] was 2.595%, the “H3.1: K27ME1, % of peptide pool” value [3, 8] was 48.9633% and the “H3.1: K27ME2, % of peptide pool” value [3, 8] was 15.6374%. For the same compound, the “H3.1: K27ME3, % of peptide pool” value [3, 8] was 2.258%, the “H3.1: K27UN, % of peptide pool” value [3, 8] was 30.5467% and the “H3.1: K36AC, % of peptide pool” value [3, 8] was 0.2238%. The “H3.1: K36ME1, % of peptide pool” value [3, 8] was 13.8902%, the “H3.1: K36ME2, % of peptide pool” value [3, 8] was 50.2838% and the “H3.1: K36ME3, % of peptide pool” value [3, 8] was 20.6064%. The “H3.1: K36UN, % of peptide pool” value [3, 8] was 14.9959%, the “H3.3: K27AC, % of peptide pool” value [3, 8] was 7.138% and the “H3.3: K27M, % of peptide pool” value [3, 8] was 0%. The “H3.3: K27ME1, % of peptide pool” value [3, 8] was 44.2688%, the “H3.3: K27ME2, % of peptide pool” value [3, 8] was 12.6213% and the “H3.3: K27ME3, % of peptide pool” value [3, 8] was 4.2957%. For the same compound, the “H3.3: K27UN, % of peptide pool” value [3, 8] was 31.6757%, the “H3.3: K36AC, % of peptide pool” value [3, 8] was 3.015% and the “H3.3: K36ME1, % of peptide pool” value [3, 8] was 12.2658%. For the same compound, the “H3.3: K36ME2, % of peptide pool” value [3, 8] was 51.706%, the “H3.3: K36ME3, % of peptide pool” value [3, 8] was 19.9849% and the “H3.3: K36UN, % of peptide pool” value [3, 8] was 13.0282%. The “H4: K5AC, % of peptide pool” value [3, 8] was 7.684%, the “H4: K5UN, % of peptide pool” value [3, 8] was 92.3159% and the “H4: K8AC, % of peptide pool” value [3, 8] was 10.6823%. The “H4: K8UN, % of peptide pool” value [3, 8] was 89.3177%, the “H4: K12AC, % of peptide pool” value ([3]; 2102EP cells, Mod Spec raw data, histone H4 K12 acetylated) was 6.039 % of peptide pool and the “H4: K12UN, % of peptide pool” value ([3]; 2102EP cells, Mod Spec raw data, histone H4 K12 unmodified) was 93.9609 % of peptide pool. The “H4: K16AC, % of peptide pool” value ([3]; 2102EP cells, Mod Spec raw data, histone H4 K16 acetylated) was 41.5696 % of peptide pool, the “H4: K16UN, % of peptide pool” value ([3]; 2102EP cells, Mod Spec raw data, histone H4 K16 unmodified) was 58.4304 % of peptide pool and the “H4: K20AC, % of peptide pool” value ([3]; 2102EP cells, Mod Spec raw data, histone H4 K20 acetylated) was 21.2904 % of peptide pool. The “H4: K20ME2, % of peptide pool” value ([3]; 2102EP cells, Mod Spec raw data, histone H4 K20 dimethylated) was 42.0499 % of peptide pool, the “H4: K20ME1, % of peptide pool” value ([3]; 2102EP cells, Mod Spec raw data, histone H4 K20 monomethylated) was 3.554 % of peptide pool and the “H4: K20ME3, % of peptide pool” value ([3]; 2102EP cells, Mod Spec raw data, histone H4 K20 trimethylated) was 1.778 % of peptide pool. For the same compound, the “H4: K20UN, % of peptide pool” value ([3]; 2102EP cells, Mod Spec raw data, histone H4 K20 unmodified) was 31.3272 % of peptide pool, the “change of histone modifications of the expected mode of action (Mod Spec)” value [3, 9] was “decreased H3K27 methylation” and the “off-target changes of histone modifications (Mod Spec)” value [3, 9] was “increase of H4K20ac”. It also gave an EC50 (Sertoli cells FS1 (SC)) of 10.6 µM, an EC50 [4] of 9.06 µM and an EC50 [5] of 10.1 µM. For the same compound, the “5hmC levels increase compared to solvent control” value [6] was 30% and the “5mC levels compared to solvent control” value ([6]; solvent control set to 100%) was 52%.

Reference: PMC8742467, “Therapeutical interference with the epigenetic landscape of germ cell tumors: a comparative drug study and new mechanistical insights” (Clinical Epigenetics, 2022)
